Laboratory results taken from US6103709A (priority 1998, dated 2000).

Columns and labels:
[1] = target: T1, nuclear receptor for 1α,25(OH)2 D3 [VDRnuc] (Gallus gallus, UniProt O42392); experiment: Relative Competitive Index (steroid competition) assay, nuclear receptor VDRnuc; assay type: binding, chick; design: key to Nuclear 1α,25-D Receptor (RCI): % relative to 1α,25(OH)2D3 binding (RCI = 100%); conditions: for Binding to VDRnuc relative to 1α,25(OH)2 D3 (RCI): 1α,25(OH)2 D3 = 100%, FIG. 8: chick intestine mucosa; for Nuclear 1α,25-D Receptor (RCI): RCI of 1α,25(OH)2 D3 = 100
T1 construct: VDRnuc receptor preparation from chick intestine mucosa; from tissue; host or cells: chick intestinal mucosa
T1 sequence (O42392 1-451): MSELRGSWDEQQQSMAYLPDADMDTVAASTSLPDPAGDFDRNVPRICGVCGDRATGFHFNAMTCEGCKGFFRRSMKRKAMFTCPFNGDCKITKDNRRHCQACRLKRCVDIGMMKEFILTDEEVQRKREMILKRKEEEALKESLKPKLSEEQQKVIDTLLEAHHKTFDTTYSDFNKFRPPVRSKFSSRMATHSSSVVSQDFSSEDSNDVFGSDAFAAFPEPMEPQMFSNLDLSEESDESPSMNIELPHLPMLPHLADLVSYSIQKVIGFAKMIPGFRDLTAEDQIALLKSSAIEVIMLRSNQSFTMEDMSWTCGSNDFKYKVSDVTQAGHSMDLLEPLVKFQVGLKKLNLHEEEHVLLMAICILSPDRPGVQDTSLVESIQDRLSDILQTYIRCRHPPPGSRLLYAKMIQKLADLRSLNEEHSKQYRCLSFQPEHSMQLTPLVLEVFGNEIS
Method: The ability of analogs to mediate genomic responses are directly determined by the ability of the analog in question to bind to the nuclear receptor for 1α,25(OH)2 D3 [VDRnuc ]. This ability is detected by the assay measuring Relative Competitive Index (RCI).
The assay is based upon the principles of a steroid competition assay. A fixed amount of [^3 H]1α,25(OH)2 D3 is mixed with increasing amounts of competitive analogs or the natural hormone, 1α,25(OH)2 D3, and incubated with a VDRnuc receptor preparation from chick intestine mucosa.
Ligand Receptor Competition Assay
This example describes a ligand receptor competitive assay used for determination of an analog's relative ability to bind to VDRnuc expressed as relative competitive index (RCI).
The relative affinity of nonradioactive 1α,25(OH)2 D3 and each analog to compete with [^3 H]1α,25(OH)2 D3 for binding to the VDRnuc of NB4 cells was carried out in vitro. The NB4 cells were collected from a fast growing stage and the cellular VDRnuc of 1α,25(OH)2 D3 were extracted from KTED buffer containing 10 mM Tris-HCl, pH 7.4, 300 mM KCl, 1 mM EDTA and 5 mM DTT. After sonication, the cell extract was further centrifuged at 500× g for 10 min. The supernatant was collected for use in a ligand-receptor binding assay.
In this assay, increasing concentrations (10^-10 to 10^-6 M) of nonradioactive 1α,25(OH)2 D3 or the tested analogs were incubated with NB4 cell extracts in the presence of a fixed saturating amount of 1 pmole of [^3 H]1α,25(OH)2 D3. The reciprocal of the percentage of maximal binding of [^3 H]1α,25(OH)2 D3 was then calculated and plotted as a function of the relative analog concentration versus [^3 H]1α,25(OH)2 D3. […] The competitive index value for each analog is then normalized to the competitive index value of the […], thereby generating the value of Relative Competitive Index (RCI) where the RCI for 1α,25(OH)2 D3 is defined as 100%.
The full description of the assay is found in Methods in Enzymology: Vitamins and Co-Enzymes, Vol. 67, 494-500 , Academic Press, NY(1980); Biochem. Biophys. Res. Commun., 91: 827-834 (1979); and Endocrinology, 139(2): 457-465 (1998).

[2] = target: T2, human vitamin D-binding protein (hDBP) (Homo sapiens, UniProt P02774); experiment: Relative Competitive Index assay, vitamin D-binding protein; conditions: for Vit D Binding Protein (RCI): RCI of 1α,25(OH)2 D3 set to 100, 4° C., pH 7.4; for Binding to DBP relative to 1α,25(OH)2 D3 (RCI, FIG. 7): 1α,25(OH)2 D3 = 100%, mean of three determinations; for DBP binding (in words): compared with 1α,25(OH)2 D3
T2 sequence (P02774 17-474): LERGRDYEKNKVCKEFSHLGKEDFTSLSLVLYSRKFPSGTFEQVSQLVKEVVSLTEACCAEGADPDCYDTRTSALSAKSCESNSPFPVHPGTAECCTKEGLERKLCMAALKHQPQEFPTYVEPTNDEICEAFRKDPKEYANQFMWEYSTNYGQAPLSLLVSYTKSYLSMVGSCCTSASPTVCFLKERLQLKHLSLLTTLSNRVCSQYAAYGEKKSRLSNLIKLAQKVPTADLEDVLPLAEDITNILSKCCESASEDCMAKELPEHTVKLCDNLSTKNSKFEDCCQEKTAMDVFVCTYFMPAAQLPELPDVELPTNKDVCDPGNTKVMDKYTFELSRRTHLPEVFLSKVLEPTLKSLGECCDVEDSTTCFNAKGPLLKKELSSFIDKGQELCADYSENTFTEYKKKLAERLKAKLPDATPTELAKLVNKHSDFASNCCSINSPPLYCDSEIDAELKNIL
From the text: The compared analogs are 14α,15α-methano-1α,25(OH)2 D3 (LO), 22(m(dimethylhydroxymethyl)phenyl)-23,24,25,26,27-pentanor-1α- OH-D3 (EV) and (22R)-1,25(OH)2 -22,23,diene-D3 (HR), all conformationally flexible genomic agonists. By definition the RCI for 1α,25(OH)2 D3 is set to 100%. The data seen in FIG. 7 represent the mean of three determinations.
Vitamin D-Binding Protein Assay Relative Competitive Index
This example describes a Relative Competitive Index Assay used for determination of analogs binding affinity to vitamin D-binding protein.
Phase separation was then obtained by the addition of 0.5 ml of cold dextran-coated charcoal.
The data was plotted as [competitor]/[[^3 H]25(OH)D3 ] vs. 1/[fraction bound]. The RCI was calculated as [slope of competitor]/[slopefor 25(OH)D3 ]×100. Results are seen in FIG. 7. Although each analog was assayed in competition with [^3 H]25(OH)D3, the data are expressed as relative to the binding of 1α,25(OH)2 D3, with its RCI set to 100.

Row | Binding to VDRnuc relative to 1α,25(OH)2 D3 (RCI) [1] [%] | Nuclear 1α,25-D Receptor (RCI) [1] | Vit D Binding Protein (RCI) [2] | Binding to DBP relative to 1α,25(OH)2 D3 (RCI, FIG. 7) [2] [%] | RCI for DBP, times greater than 1α,25(OH)2 D3 ([2]; relative to reference 1α,25(OH)2 D3) [times] | Compound | DBP binding (in words) [2] | VDRnuc binding / nuclear response (in words) ([1]; compared with 1α,25(OH)2 D3)
1 | 29 | 29 | 980 | – | – | C=C1/C(=C\C=C2/CCC[C@]3(C)[C@@H]([C@H](C)Cc4cccc(O)c4)CC[C@@H]23)C[C@@H](O)C[C@@H]1O [DE] | – | –
2 | 5 | 5 | 1980 | – | – | C=C1/C(=C\C=C2/CCC[C@]3(C)[C@@H]([C@H](C)Cc4ccc(O)cc4)CC[C@@H]23)C[C@@H](O)C[C@@H]1O [DF] | – | –
3 | 62 | 62 | 25 | 25 | – | C=C1/C(=C\C=C2/CCC[C@]3(C)[C@@H]([C@H](C)Cc4cccc(C(C)(C)O)c4)CC[C@@H]23)C[C@@H](O)C[C@@H]1O [EV] | lower than 1α,25(OH)2 D3 | –
4 | – | 21 | 11 | – | – | C=C1/C(=C\C=C2/CCC[C@]3(C)[C@@H]([C@H](C)C=C=CC(C)(C)O)CC[C@@H]23)C[C@@H](O)C[C@@H]1O [HQ] | lower than 1α,25(OH)2 D3 | –
5 | 52 | 52 | 48 | 48 | – | C=C1/C(=C\C=C2/CCC[C@]3(C)[C@@H]([C@H](C)C=C=CC(C)(C)O)CC[C@@H]23)C[C@@H](O)C[C@@H]1O [HR] | lower than 1α,25(OH)2 D3 | –
6 | – | 0.002 | 211,000 | – | 2110 | C=C1CC[C@H](O)C/C1=C/C=C1\CCC[C@]2(C)[C@@H]([C@H](C)Cc3ccc(O)cc3)CC[C@@H]12 [JX] | binds very tightly to DBP | –
7 | – | 0.001 | 132,000 | – | – | C=C1CC[C@H](O)C/C1=C/C=C1\CCC[C@]2(C)[C@@H]([C@H](C)Cc3cccc(O)c3)CC[C@@H]12 [JY] | – | –
8 | 98 | 98 | 60 | 60 | – | C=C1/C(=C\C=C2/CCC[C@]3(C)[C@@H]([C@H](C)CCCC(C)(C)O)C[C@@H]4C[C@@]243)C[C@@H](O)C[C@@H]1O [LO] | lower than 1α,25(OH)2 D3 | as active in generating nuclear responses as is the 1α,25(OH)2 D3

Row | Compound | Binding to VDRnuc relative to 1α,25(OH)2 D3 (RCI) [1] [%] | Nuclear 1α,25-D Receptor (RCI) [1] | Vit D Binding Protein (RCI) [2] | Binding to DBP relative to 1α,25(OH)2 D3 (RCI, FIG. 7) [2] [%] | RCI for DBP, times greater than 1α,25(OH)2 D3 ([2]; relative to reference 1α,25(OH)2 D3) [times] | DBP binding (in words) [2] | VDRnuc binding / nuclear response (in words) ([1]; compared with 1α,25(OH)2 D3)
9 | CC1=C(/C=C\C2=CCC[C@@]3(C)[C@@H]2CC[C@@H]3[C@H](C)CCCC(C)(C)O)C[C@@H](O)C[C@@H]1O [GF] | – | 2 | 2 | – | – | lower than 1α,25(OH)2 D3 | –
10 | C[C@H](CCCC(C)(C)O)[C@H]1CC[C@H]2C3=CC=C4C[C@@H](O)C[C@H](O)[C@]4(C)[C@H]3CC[C@]12C [JM] | – | 0.1 | -0.3 | – | – | lower than 1α,25(OH)2 D3 | –
11 | C[C@H](CCCC(C)(C)O)[C@H]1CC[C@H]2C3=CC=C4C[C@@H](O)C[C@H](O)[C@@]4(C)[C@@H]3CC[C@]12C [JN] | – | 1.8 | -0.7 | – | – | lower than 1α,25(OH)2 D3 | –
12 | C[C@H](CCCC(C)(C)O)[C@H]1CC[C@H]2C3=CC=C4C[C@@H](O)C[C@H](O)[C@@]4(C)[C@H]3CC[C@]12C [JO] | – | 0.2 | 2.0 | – | – | lower than 1α,25(OH)2 D3 | –
13 | C[C@H](CCCC(C)(C)O)[C@H]1CC[C@H]2C3=CC=C4C[C@@H](O)C[C@H](O)[C@]4(C)[C@@H]3CC[C@]12C [JP] | – | 0.3 | -5.0 | – | – | lower than 1α,25(OH)2 D3 | –
14 | CC1=C(C=C=C2CCC[C@]3(C)[C@@H]([C@H](C)CCCC(C)(C)O)CC[C@@H]23)C[C@@H](O)C[C@@H]1O [JV] | – | 1.6 | 37 | – | – | lower than 1α,25(OH)2 D3 | –
15 | CC1=C(C=C=C2CCC[C@]3(C)[C@@H]([C@H](C)CCCC(C)(C)O)CC[C@@H]23)C[C@@H](O)C[C@@H]1O [JW] | – | 2.6 | 700 | – | – | – | –
